Laboratory results from patent US5276053A, “Polycyclic amines useful as cerebrovascular agents” (Warner-Lambert Company, priority 1992, dated 1994).
Counter-ions that a name gives are not always drawn.

Key:
[1] = target: phencyclidine (PCP) receptors; experiment: Inhibition of [^3 H]TCP receptor binding (RBS1)
Description: The ability of the compounds of the instant invention to interact with phencyclidine (PCP) receptors which represents a noncompetitive NMDA antagonist binding site, is shown in Table 1. Tritiated 1[1-(2-thienyl)cyclohexyl]piperidine (TCP) binding, designated RBS1, was carried out essentially as described in J. Pharmacol. Exp. Ther., 238, 739-749 (1986).

[2] = test system: cultured rat cortical neurons; experiment: Inhibition of glutamate stimulated [^45 Ca] influx (GCI) into cultured rat cortical neurons; format: cell-based; conditions: Cortical neurone, read-out: CGCI IC50
Description: (§1) Since the influx of calcium is thought to be central to the damage resulting from ischemia, the ability of the compounds of the instant invention to inhibit the hypoxia and glutamate-stimulated influx of calcium into cultured rat cortical neurons (an assay representative of cerebrovascular disorders resulting from stroke or brain injury) is shown in Table 2 and Table 3, respectively. The methodology for determining the ability of the compounds of the instant invention to inhibit the glutamate-stimulated calcium influx (GCI) into cultured rat cortical neurons is to be found in: A. W. Probert and F. W. Marcoux, Soc. Neurosci. Abstr. 13, Part II, 754 (1987). Using a similar culture system, the ability of the compounds of the instant invention to inhibit the hypoxia-stimulated influx of calcium (HCI) was determined by incubating cultured cells in an atmosphere of nitrogen (95%) and CO2 (5%) at 37° C. for a period of four hours. Calcium influx was determined by subtraction of the stimulated influx in the presence of tetrodotoxin (3 μM) and magnesium (10 mM) from that found in the absence (control) and in the presence of the test substance.

[3] = test system: cultured rat cortical neurons; experiment: Inhibition of hypoxia stimulated [^45 Ca] influx (HCI) into cultured rat cortical neurons; format: cell-based; conditions: Cortical neurone, 4 h, hypoxia stimulated [^45 Ca] influx (CHCI), Table 3, nitrogen (95%) and CO2 (5%), 37° C., four hours, read-out: CGCI IC50
Description: as §1

| Compound | IC50 [1] [nM] | IC50 [2] [nM] | IC50 [3] [nM] |
| --- | --- | --- | --- |
| CNC12CCCCC1Cc1ccccc12 (stereo not drawn) [* (X = CH2)] | 16 |  |  |
| N[C@]12CCCC[C@H]1CCc1ccccc12 (relative stereo) [Example 2, Cis-1,3,4,9-10,10a-hexahydro-4a(2H)-phenanthrenamine monohydrochloride] | 20 | 100 |  |
| CN[C@]12CCCC[C@H]1CCc1ccccc12 (relative stereo) [Example 4, Cis-1,3,4,9,10,10a-hexahydro-N-methyl-4a(2H)-phenanthrenamine monohydrochloride] | 15 | 410 | 180 |
| C=CCN[C@]12CCCC[C@H]1CCc1ccccc12 (relative stereo) [Example 5, N-Allyl-cis-1,3,4,9,10,10a-hexahydro-4a(2H)-phenanthrenamine monohydrochloride] | 100 | 902 | 660 |
| CNC12CCCCC1Sc1ccccc12 (stereo not drawn) [* (X = S), reference compound] |  | 210 | 180 |
| c1csc(C2(N3CCCCC3)CCCCC2)c1 [TCP, 1[1-(2-thienyl)cyclohexyl]piperidine] | 9 |  |  |
